Key:
Set-up in all cases: key: Active: Compounds with an IC50 value less than 30 μM were deemed to be active.; Not Active: Compounds with an IC50 value less than 30 μM were deemed to be active
hIL-6 mRNA = test: Inhibition of hIL-6 mRNA transcription in U937 cells; assay type: cell-based, human; details: LPS stimulation, active = IC50 <30 μM
Method: In this example, hIL-6 mRNA in tissue culture cells was quantitated to measure the transcriptional inhibition of hIL-6 when treated with a compound of the present disclosure.
A human leukemic monocyte lymphoma cell line (U937) was plated (3.2×10^4 cells per well) in a 96-well plate in […] RPMI-1640 containing 10% FBS and penicillin/streptomycin, and differentiated into macrophages for 3 days in 60 ng/mL PMA ([…]) at 37° C. in 5% CO2 prior to the addition of the compound of interest. The cells were pretreated for 1 h with the test compound prior to stimulation with 1 ug/mL lipopolysaccharide from Escherichia coli. The cells were incubated at 37° C. for 3 h before the cells were harvested. At time of harvest, the spent media was removed from the cells and the cells were rinsed in […] PBS. Cell lysis solution (70 μL) was added the cells in each well and incubated for 5-10 min at room temperature, to allow for complete cell lysis and detachment. mRNA was then prepared using the “mRNA Catcher PLUS plate” (Invitrogen), according to the protocol supplied. After the last wash, as much wash buffer as possible was aspirated without allowing the wells to dry. Elution buffer (E3, 70 μL) was then added to each well. mRNA was then eluted by incubating the mRNA Catcher PLUS plate with Elution Buffer for 5 min at 68° C. and then immediately placing the plate on ice.
The eluted mRNA isolated was then used in a one-step quantitative real-time PCR reaction, using components of the Ultra Sense Kit together with Applied Biosystems primer-probe mixes. Real-time PCR data was analyzed, normalizing the Ct values for hIL-6 to an internal control, prior to determining the fold induction of each unknown sample, relative to the control.

[1] = molecular target: T1, second bromodomain of Brd2 (BRD2(2)) (Homo sapiens, UniProt P25440); test: Inhibition of tetra-acetylated histone H4 binding to Brd2 bromodomain 2 (TR-FRET); details: tetra-acetylated histone H4 peptide, active = IC50 <30 μM
T1 construct: made in house; host or cells: E. coli BL21 (DE3)
Method: Proteins were cloned and overexpressed with a N-terminal 6×His tag, then purified by nickel affinity followed by size exclusion chromatography. Briefly, E. coli BL21 (DE3) cells were transformed with a recombinant expression vector encoding N-terminally Nickel affinity tagged bromodomains from Brd2, Brd3, Brd4. Cell cultures were incubated at 37° C. with shaking to the appropriate density and induced overnight with IPTG. The supernatant of lysed cells was loaded onto Ni-IDA column for purification. Eluted protein is pooled, concentrated and further purified by size exclusion chromatography. Fractions representing monomeric protein were pooled, concentrated, aliquoted, and frozen at −80° C. for use in subsequent experiments.
Binding of tetra-acetylated histone H4 and BET bromodomains was confirmed by a Time Resolved Fluorescence Resonance Energy Transfer (TR-FRET) method. N-terminally His-tagged bromodomains (200 nM) and biotinylated tetra-acetylated histone H4 peptide (25-50 nM, Millipore) were incubated in the presence of Europium Cryptate-labeled streptavidin (Cisbio Cat. #610SAKLB) and XL665-labeled monoclonal anti-His antibody (Cisbio Cat. #61HISXLB) in a white 96 well microtiter plate (Greiner). For inhibition assays, serially diluted test compound was added to these reactions in a 0.2% final concentration of DMSO. Final buffer concentrations were 30 mM HEPES pH 7.4, 30 mM NaCl, 0.3 mM CHAPS, 20 mM phosphate pH 7.0, 320 mM KF, 0.08% BSA). After a 2-h incubation at room temperature, the fluorescence by FRET was measured at 665 and 620 nm by a SynergyH4 plate reader (Biotek). Illustrative results with the first bromodomain of Brd4 and the second bromodomain of Brd2 are shown below. The binding inhibitory activity was shown by a decrease in 665 nm fluorescence relative to 620 nm. IC50 values were determined from a dose response curve.

[2] = molecular target: T2, Brd4 bromodomain 1 (BRD4(1)) (Homo sapiens, UniProt O60885); test: Inhibition of tetra-acetylated histone H4 binding to Brd4 bromodomain 1 (TR-FRET); details: tetra-acetylated histone H4 peptide, active = IC50 <30 μM
T2 construct: Illustrative results with the first bromodomain of Brd4; made in house; host or cells: E. coli BL21 (DE3)
Method in brief: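 N-terminally His-tagged bromodomains (200 nM), expressed in E. coli, were incubated with biotinylated tetra-acetylated histone H4 peptide (25-50 nM), Eu-cryptate streptavidin and XL665 anti-His antibody in HEPES pH 7.4 buffer with KF, 0.2% DMSO, 2 h at room temperature. Inhibition read as decreased 665/620 nm TR-FRET; IC50 from dose-response curves.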

T1 sequence (P25440 344-453 limits assumed): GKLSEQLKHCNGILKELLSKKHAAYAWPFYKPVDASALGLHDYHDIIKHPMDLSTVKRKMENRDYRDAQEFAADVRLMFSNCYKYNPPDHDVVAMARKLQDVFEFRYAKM

SMILES	IL-6 activity (IC50 <30 μM) (hIL-6 mRNA)	FRET activity (IC50 <30 μM) BRD2(2) [1]	FRET activity (IC50 <30 μM) BRD4(1) [2]
Cc1noc(C)c1-c1ccc(=O)n(C(C)c2ccccc2C(F)(F)F)c1 (stereo not drawn) [Example 38, 5-(3,5-Dimethylisoxazol-4-yl)-1-(1-(2-(trifluoromethyl)phenyl)ethyl)pyridin-2(1H)-one]	Active	Active	Active
Cc1noc(C)c1-c1ccc(=O)n(Cc2cccnc2)c1 [Example 44, 5-(3,5-Dimethylisoxazol-4-yl)-1-(pyridin-3-ylmethyl)pyridin-2(1H)-one]	Not Active	Active	Active
Cc1cccc(Cn2cc(-c3c(C)noc3C)ccc2=O)n1 [Example 46, 5-(3,5-Dimethylisoxazol-4-yl)-1-((6-methylpyridin-2-yl)methyl)pyridin-2(1H)-one]	Active	Active	Active
Cc1noc(C)c1-c1ccc(=O)n(C(C)c2ccccc2Cl)c1 (stereo not drawn) [Example 103, 1-(1-(2-Chlorophenyl)ethyl)-5-(3,5-dimethylisoxazol-4-yl)pyridin-2(1H)-one]	Not Active	Active	Active
COc1cc(-c2ccc(=O)n(Cc3ccc(S(C)(=O)=O)cc3)n2)cc(OC)c1OC [Example 116, 2-(4-(Methylsulfonyl)benzyl)-6-(3,4,5-trimethoxyphenyl)pyridazin-3(2H)-one]	–	Active	Active
COc1ccc(Cn2cc(-c3c(C)noc3C)ccc2=O)cc1 [Example 130, 5-(3,5-Dimethylisoxazol-4-yl)-1-(4-methoxybenzyl)pyridin-2(1H)-one]	Active	Active	Active
Cc1noc(C)c1-c1ccc(=O)n(Cc2ccc(F)cc2F)c1 [Example 138, 1-(2,4-Difluorobenzyl)-5-(3,5-dimethylisoxazol-4-yl)pyridin-2(1H)-one]	Active	Active	Active
Cc1noc(C)c1-c1ccc(=O)n(Cc2ccc(F)cc2Cl)c1 [Example 140, 1-(2-Chloro-4-fluorobenzyl)-5-(3,5-dimethylisoxazol-4-yl)pyridin-2(1H)-one]	–	Active	Active
Cc1noc(C)c1-c1ccc(=O)n(Cc2ccc(S(C)(=O)=O)cc2)c1 [Example 145, 5-(3,5-Dimethylisoxazol-4-yl)-1-(4-(methylsulfonyl)benzyl)pyridin-2(1H)-one]	–	Active	Active
Cc1noc(C)c1-c1ccc(=O)n(S(=O)(=O)c2ccc(Cl)cc2)c1 [Example 150, 1-((4-Chlorophenyl)sulfonyl)-5-(3,5-dimethylisoxazol-4-yl)pyridin-2(1H)-one]	–	Not Active	Active
Cc1noc(C)c1-c1nn(Cc2ccccc2)c(=O)c2ccccc12 [Example 170, 2-Benzyl-4-(3,5-dimethylisoxazol-4-yl)-2H-phthalazin-1-one]	–	Active	Not Active
COc1ccc(-c2nn(Cc3ccccc3)c(=O)c3ccccc23)c(OC)c1OC [Example 177, 2-Benzyl-4-(2,3,4-trimethoxyphenyl)phthalazin-1(2H)-one]	–	Active	Active
Cc1noc(C)c1-c1cc(Nc2cccnn2)c(=O)n(Cc2ccccc2)c1 [Example 221, 1-benzyl-5-(3,5-dimethylisoxazol-4-yl)-3-(pyridazin-3-ylamino)pyridin-2(1H)-one]	Not Active	–	Active
Cc1cccc(Cn2cc(-c3c(C)noc3C)cc(N)c2=O)n1 [Example 244, 3-amino-5-(3,5-dimethylisoxazol-4-yl)-1-((6-methylpyridin-2-yl)methyl)pyridin-2(1H)-one]	Active	–	Active
Cc1ccc(Cn2cc(-c3c(C)noc3C)cc(N)c2=O)cn1 [Example 258, 3-amino-5-(3,5-dimethylisoxazol-4-yl)-1-((6-methylpyridin-3-yl)methyl)pyridin-2(1H)-one]	Active	–	Active

Next, values leading:

IL-6 activity (IC50 <30 μM) (hIL-6 mRNA)	FRET activity (IC50 <30 μM) BRD2(2) [1]	FRET activity (IC50 <30 μM) BRD4(1) [2]	SMILES
Active	Active	Active	Cc1noc(C)c1-c1ccc(=O)n(Cc2ccccc2OC(F)(F)F)n1 [Example 39, 6-(3,5-Dimethylisoxazol-4-yl)-2-(2-(trifluoromethoxy)benzyl)pyridazin-3(2H)-one]
Not Active	Active	Active	CNC(=O)c1ccc(Cn2nc(-c3c(C)noc3C)ccc2=O)cc1 [Example 89, 4-((3-(3,5-Dimethylisoxazol-4-yl)-6-oxopyridazin-1(6H)-yl)methyl)-N-methylbenzamide]
Active	Active	Active	Cc1noc(C)c1-c1ccc(=O)n(Cc2cccc3cccnc23)n1 [Example 102, 6-(3,5-Dimethylisoxazol-4-yl)-2-(quinolin-8-ylmethyl)pyridazin-3(2H)-one]
Active	Active	Active	Cc1noc(C)c1-c1ccc(=O)n(Cc2ccncc2)c1 [Example 129, 5-(3,5-Dimethylisoxazol-4-yl)-1-(pyridin-4-ylmethyl)pyridin-2(1H)-one]
Active	Active	Active	COc1ccc(Cn2cc(-c3c(C)noc3C)ccc2=O)cc1OC [Example 131, 1-(3,4-Dimethoxybenzyl)-5-(3,5-dimethylisoxazol-4-yl)pyridin-2(1H)-one]
–	Active	Active	Cc1noc(C)c1-c1ccc(=O)n(Cc2ccc3[nH]cnc3c2)n1 [Example 143, 2-((1H-Benzo[d]imidazol-5-yl)methyl)-6-(3,5-dimethylisoxazol-4-yl)pyridazin-3(2H)-one]
–	Active	Active	Cc1noc(C)c1-c1ccc(=O)n(Cc2cc(F)c(F)c(F)c2)n1 [Example 144, 6-(3,5-Dimethylisoxazol-4-yl)-2-(3,4,5-trifluorobenzyl)pyridazin-3(2H)-one]
–	Active	Active	Cc1noc(C)c1-c1ccc(=O)n(Cc2ncccn2)c1 [Example 163, 5-(3,5-Dimethylisoxazol-4-yl)-1-(pyrimidin-2-ylmethyl)pyridin-2(1H)-one]

Source: patent US9271978B2 (Zenith Epigenetics Corp., priority 2012, dated 2016)
